Data taken from US12613179B2, “Label-free electrical monitoring of cell aggregates” (NANYANG TECHNOLOGICAL UNIVERSITY, priority 2020, dated 2026).

System: cell aggregates modelling cancer tumoroids
Experiment: drug susceptibility testing of cell aggregates by EIS-based electrical signatures and optical microscopy
Method: In another set of experiments, the method of the present disclosure is shown to be useful in the continuous monitoring of the physiological and/or morphological changes of cell aggregates in drug susceptibility testing. Paclitaxel (PTX), a common anti-cancer drug for several types of cancers, was provided at different concentrations ranging from 0 nM (nanoMole) to 500 nM to cultures of cell aggregates modelling cancer tumoroids and observed over a period of 24 hours. […] Based on optical microscopy, it can be appreciated that there are hardly any distinguishable differences between the cell aggregate image at 100 nM of PTX and the cell aggregate images at 200 nM PTX or 500 nM PTX. […] Conventionally, it would have required testing the extracellular environment for metabolites to determine such a change. In contrast, by considering the two EIS-based electrical signatures of electrical size and opacity, more information on the effect of drug treatment can be determined. […] The two EIS-based electrical signatures together are able to indicate that the physiological state of the cells undergo substantive changes only after the drug concentration is raised to 500 nM. This is consistent with what is known of the drug treatment modelled in these experiments, and validates the usefulness of the EIS-based electrical signatures in monitoring physiological and/or morphological changes in 3D cell aggregates.

`CC(=O)O[C@H]1C(=O)[C@@]2(C)[C@H]([C@H](OC(=O)c3ccccc3)[C@]3(O)C[C@H](OC(=O)[C@H](O)[C@@H](NC(=O)c4ccccc4)c4ccccc4)C(C)=C1C3(C)C)[C@]1(OC(C)=O)CO[C@@H]1C[C@@H]2O` [Paclitaxel] was tested, and the “optical size of the cell aggregate (optical microscopy)” value (100 nM PTX, 24 hours, FIG. 17A) was “started to decrease”, the “electrical size of the cell aggregates” value (500 nM PTX, observed over 24 hours, FIG. 17B, 0 nM control 300±41.8 μm) was 281±40.3 μm and the “opacity of the cell aggregates” value (drug concentration increased from 0 nM to 500 nM, 24 hours, FIG. 17C) was “remains relatively unchanged”.
